Assay results published in patent US7531569B2, “Process for preparing (3-oxo-2,3-dihydro-1H-isoindol-1-yl) acetylguanidine derivatives” (sanofi-aventis Deutschland GmbH, priority 2003, dated 2009).

What was measured:
human NHE-1 = molecular target: T1, human NHE-1 (Homo sapiens, UniProt P19634); assay: FLIPR assay of pHi recovery in transfected LAP-1 cell lines expressing human NHE-1; format: cell-based; conditions: transfected cells expressing human NHE-1, read-out: NHE1 inhibition IC50
T1 construct: expressed in transfected cells; host or cells: LAP-1 (parental line without endogenous NHE activity), G418 selection
T1 sequence (P19634 whole entry): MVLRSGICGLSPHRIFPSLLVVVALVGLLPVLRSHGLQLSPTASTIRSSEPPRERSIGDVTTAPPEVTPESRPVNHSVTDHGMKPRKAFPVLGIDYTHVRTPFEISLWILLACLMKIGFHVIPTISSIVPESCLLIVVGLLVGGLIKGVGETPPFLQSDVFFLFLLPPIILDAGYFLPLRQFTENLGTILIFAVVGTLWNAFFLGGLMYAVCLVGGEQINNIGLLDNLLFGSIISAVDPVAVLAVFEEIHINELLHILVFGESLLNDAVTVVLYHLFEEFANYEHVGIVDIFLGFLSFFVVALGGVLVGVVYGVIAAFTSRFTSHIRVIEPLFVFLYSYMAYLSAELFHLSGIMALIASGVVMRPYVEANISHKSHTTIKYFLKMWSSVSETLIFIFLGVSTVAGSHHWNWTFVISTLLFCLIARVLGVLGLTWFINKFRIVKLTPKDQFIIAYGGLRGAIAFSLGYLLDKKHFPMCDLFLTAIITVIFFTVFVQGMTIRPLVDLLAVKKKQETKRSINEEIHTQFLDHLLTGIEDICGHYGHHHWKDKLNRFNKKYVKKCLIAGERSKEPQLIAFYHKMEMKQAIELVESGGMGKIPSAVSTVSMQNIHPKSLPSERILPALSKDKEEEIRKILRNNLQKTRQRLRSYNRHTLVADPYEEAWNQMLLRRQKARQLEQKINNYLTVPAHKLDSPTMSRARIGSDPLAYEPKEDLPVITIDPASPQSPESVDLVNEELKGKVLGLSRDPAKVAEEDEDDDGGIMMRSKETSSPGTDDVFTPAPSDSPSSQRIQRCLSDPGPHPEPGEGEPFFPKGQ
Procedure: The inhibitory concentration IC50 for NHE-1 inhibition was determined as follows:
The NHE-1 inhibition IC50 was determined in an FLIPR assay by measurement of the recovery in pHi in transfected cell lines which express human NHE-1.
The assay was carried out in an FLIPR (fluorescent imaging plate reader) with black-walled 96-well microtiter plates having clear bases.
The growth medium for the transfected cells (Iscove+10% fetal calf serum) additionally contained G418 as a selection antibiotic in order to ensure the presence of the transfected sequences.
The actual assay started with the removal of the growth medium and addition of 100 μl of loading buffer per well (5 μM BCECF-AM [2′,7′-bis(carboxyethyl)-5- (and -6-)carboxyfluorescein, acetoxymethyl ester] in 20 mM NH4Cl, 115 mM choline chloride, 1 mM MgCl2, 1 mM CaCl2, 5 mM KCl, 20 mM HEPES, 5 mM glucose; pH 7.4 [adjusted with KOH]). The cells were then incubated at 37° C. for 20 minutes. This incubation led to loading of the cells with the fluorescent dye whose fluorescence intensity depends on pHi, and with NH4Cl which makes the cells slightly alkaline.
The nonfluorescent dye precursor BCECF-AM is, as the ester, membrane-permeable. Inside the cell, esterases release the actual BCECF dye which is membrane-impermeable. […]

[1] = Stated solid-state and physicochemical properties of the salt (no method described); conditions: qualitative statement, no conditions given

| SMILES | IC50 (human NHE-1) | hygroscopicity [1] | solubility [1] | tendency to racemization [1] |
| --- | --- | --- | --- | --- |
| NC(N)=NC(=O)C[C@H]1c2cc(C(F)(F)F)ccc2C(=O)N1CC(F)(F)F [(S)-N-{2-[3-Oxo-2-(2,2,2-trifluoroethyl)-6-trifluoromethyl-2,3-dihydro-1H-isoindol-1-yl]-acetyl}guanidine] | 300 pM |  |  |  |
| NC(N)=NC(=O)C[C@H]1c2cc(C(F)(F)F)ccc2C(=O)N1CC(F)(F)F.O=C(O)/C=C/C(=O)O [(S)-N-{2-[3-Oxo-2-(2,2,2-trifluoroethyl)-6-trifluoromethyl-2,3-dihydro-1H-isoindol-1-yl]-acetyl}guanidine hydrogenfumarate hydrate] |  | particularly low hygroscopicity | good solubility | low tendency to racemization |
